# Assay results as given in the kinase profiling compilation of Christmann-Franck et al. (2016).
# Tests used:
# Experiment in all cases: radiometric filter-binding kinase assay, Kinase HotSpot
# Conditions in all cases: compound 0.5 µM; ATP 10 µM
# [1] = target: ROCK1 (human) (UniProt Q13464)
# [2] = target: YES1 (human) (UniProt P07947)
# [3] = target: EPHA7 (human) (UniProt Q15375)
# [4] = target: DYRK2 (human) (UniProt Q92630)
# [5] = target: FRK (human) (UniProt P42685)
# [6] = target: FLT3 (human) (UniProt P36888)
# FLT3 (human), sequence (P36888 whole entry, looked up): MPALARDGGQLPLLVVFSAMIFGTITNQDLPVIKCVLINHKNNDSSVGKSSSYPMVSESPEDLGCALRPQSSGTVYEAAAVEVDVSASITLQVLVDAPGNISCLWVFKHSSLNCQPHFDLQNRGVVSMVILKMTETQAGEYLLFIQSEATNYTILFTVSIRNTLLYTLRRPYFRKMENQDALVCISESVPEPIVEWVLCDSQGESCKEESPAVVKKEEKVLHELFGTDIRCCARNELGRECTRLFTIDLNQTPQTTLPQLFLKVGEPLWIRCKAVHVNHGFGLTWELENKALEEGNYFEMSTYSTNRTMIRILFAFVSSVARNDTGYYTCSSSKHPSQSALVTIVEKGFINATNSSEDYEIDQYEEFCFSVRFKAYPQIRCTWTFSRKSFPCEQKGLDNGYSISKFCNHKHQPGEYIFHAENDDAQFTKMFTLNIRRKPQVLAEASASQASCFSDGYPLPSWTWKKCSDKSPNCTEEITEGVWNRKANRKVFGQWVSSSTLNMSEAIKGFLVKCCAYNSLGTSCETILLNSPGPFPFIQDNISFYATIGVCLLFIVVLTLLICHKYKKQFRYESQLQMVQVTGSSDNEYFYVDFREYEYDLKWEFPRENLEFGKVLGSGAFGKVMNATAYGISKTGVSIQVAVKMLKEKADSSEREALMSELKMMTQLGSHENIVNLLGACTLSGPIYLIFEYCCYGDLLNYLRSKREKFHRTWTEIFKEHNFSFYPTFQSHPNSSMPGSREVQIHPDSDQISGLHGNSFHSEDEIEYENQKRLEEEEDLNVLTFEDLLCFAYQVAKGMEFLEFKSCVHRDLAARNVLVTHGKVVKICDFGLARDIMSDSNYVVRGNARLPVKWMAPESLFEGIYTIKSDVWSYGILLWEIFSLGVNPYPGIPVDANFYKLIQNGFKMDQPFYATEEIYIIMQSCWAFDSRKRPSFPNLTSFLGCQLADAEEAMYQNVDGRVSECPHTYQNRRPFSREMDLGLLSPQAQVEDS
# [7] = target: PRKCG (human) (UniProt P05129)
# [8] = target: DMPK (human) (UniProt Q09013)
# [9] = target: FGFR1 (human) (UniProt P11362)
# FGFR1 (human), sequence (P11362 whole entry, looked up): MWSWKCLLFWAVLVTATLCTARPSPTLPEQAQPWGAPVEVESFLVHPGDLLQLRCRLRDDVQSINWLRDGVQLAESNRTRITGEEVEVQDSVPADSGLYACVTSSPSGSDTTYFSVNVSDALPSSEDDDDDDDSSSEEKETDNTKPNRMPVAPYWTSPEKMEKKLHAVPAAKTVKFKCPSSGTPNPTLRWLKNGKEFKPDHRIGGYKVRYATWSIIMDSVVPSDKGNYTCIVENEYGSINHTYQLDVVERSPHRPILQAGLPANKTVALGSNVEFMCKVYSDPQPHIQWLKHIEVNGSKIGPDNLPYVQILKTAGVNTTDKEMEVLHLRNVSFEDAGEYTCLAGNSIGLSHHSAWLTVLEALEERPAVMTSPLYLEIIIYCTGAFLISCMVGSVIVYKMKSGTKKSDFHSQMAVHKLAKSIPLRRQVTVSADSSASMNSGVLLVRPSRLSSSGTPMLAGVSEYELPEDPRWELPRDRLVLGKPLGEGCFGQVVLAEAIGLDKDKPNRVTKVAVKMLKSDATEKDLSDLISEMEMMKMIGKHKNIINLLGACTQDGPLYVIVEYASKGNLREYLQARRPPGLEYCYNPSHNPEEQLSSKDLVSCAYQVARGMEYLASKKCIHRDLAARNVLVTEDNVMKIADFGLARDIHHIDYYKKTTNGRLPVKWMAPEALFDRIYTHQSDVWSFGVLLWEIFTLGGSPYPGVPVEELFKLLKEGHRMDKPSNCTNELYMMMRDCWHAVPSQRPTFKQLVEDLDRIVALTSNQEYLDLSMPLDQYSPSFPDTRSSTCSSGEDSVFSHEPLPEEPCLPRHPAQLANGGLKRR
# [10] = target: STK3 (human) (UniProt Q13188)
# [11] = target: GSK3B (human) (UniProt P49841)
# [12] = target: ADRBK1 (human) (UniProt P25098)
# [13] = target: INSR (human) (UniProt P06213)
# [14] = target: IKBKE (human) (UniProt Q14164)
# [15] = target: EPHB4 (human) (UniProt P54760)
# [16] = target: RPS6KA2 KD1 KD2 (human) (UniProt Q15349)
# [17] = target: ACVR1B (human) (UniProt P36896)
# [18] = target: AURKC (human) (UniProt Q9UQB9)
# [19] = target: DAPK2 (human) (UniProt Q9UIK4)
# DAPK2 (human), sequence (Q9UIK4 whole entry, looked up): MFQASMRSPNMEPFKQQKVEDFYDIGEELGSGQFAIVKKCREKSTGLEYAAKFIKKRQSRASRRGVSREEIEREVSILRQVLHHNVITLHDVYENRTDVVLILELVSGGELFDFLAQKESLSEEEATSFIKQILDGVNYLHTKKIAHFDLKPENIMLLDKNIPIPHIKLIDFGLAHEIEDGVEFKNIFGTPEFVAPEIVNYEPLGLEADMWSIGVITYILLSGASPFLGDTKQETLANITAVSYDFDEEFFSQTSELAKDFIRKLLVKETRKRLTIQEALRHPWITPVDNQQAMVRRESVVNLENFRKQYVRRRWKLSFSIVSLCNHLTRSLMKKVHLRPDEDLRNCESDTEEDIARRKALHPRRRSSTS
# [20] = target: BMX (human) (UniProt P51813)
# [21] = target: EPHA5 (human) (UniProt P54756)
# EPHA5 (human), sequence (P54756 whole entry, looked up): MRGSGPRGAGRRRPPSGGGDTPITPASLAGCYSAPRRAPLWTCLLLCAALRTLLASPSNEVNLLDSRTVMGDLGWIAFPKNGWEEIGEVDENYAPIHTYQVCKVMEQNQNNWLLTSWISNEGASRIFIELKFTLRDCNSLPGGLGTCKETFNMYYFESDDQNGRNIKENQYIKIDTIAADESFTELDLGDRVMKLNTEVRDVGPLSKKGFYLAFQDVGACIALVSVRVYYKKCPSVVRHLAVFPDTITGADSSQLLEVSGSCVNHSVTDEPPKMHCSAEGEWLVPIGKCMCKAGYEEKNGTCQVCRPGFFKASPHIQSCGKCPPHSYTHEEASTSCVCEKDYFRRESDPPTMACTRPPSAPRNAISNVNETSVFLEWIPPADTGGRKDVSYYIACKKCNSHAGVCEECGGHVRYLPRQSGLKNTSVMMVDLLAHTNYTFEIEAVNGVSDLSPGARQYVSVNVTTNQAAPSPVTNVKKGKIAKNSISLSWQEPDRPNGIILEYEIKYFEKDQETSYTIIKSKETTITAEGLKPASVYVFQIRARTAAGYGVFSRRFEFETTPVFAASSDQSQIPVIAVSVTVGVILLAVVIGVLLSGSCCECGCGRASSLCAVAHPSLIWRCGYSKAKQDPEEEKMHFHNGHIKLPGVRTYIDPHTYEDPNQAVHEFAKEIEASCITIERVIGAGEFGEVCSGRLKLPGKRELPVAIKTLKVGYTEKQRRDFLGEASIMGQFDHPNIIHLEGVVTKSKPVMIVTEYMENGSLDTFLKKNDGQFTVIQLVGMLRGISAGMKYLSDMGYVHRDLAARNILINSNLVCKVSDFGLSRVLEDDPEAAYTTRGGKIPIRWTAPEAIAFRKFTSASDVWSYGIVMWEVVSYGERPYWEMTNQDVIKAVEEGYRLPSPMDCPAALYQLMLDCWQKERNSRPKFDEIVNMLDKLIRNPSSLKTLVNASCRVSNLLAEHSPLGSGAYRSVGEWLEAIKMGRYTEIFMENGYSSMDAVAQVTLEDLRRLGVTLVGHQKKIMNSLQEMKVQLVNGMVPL
# [22] = target: NEK1 (human) (UniProt Q96PY6)
# [23] = target: SYK (human) (UniProt P43405)
# [24] = target: CAMK1 (human) (UniProt Q14012)
# [25] = target: PIM1 (human) (UniProt P11309)
# [26] = target: MAPKAPK3 (human) (UniProt Q16644)
# [27] = target: MAP3K11 (human) (UniProt Q16584)
# [28] = target: PRKCD (human) (UniProt Q05655)
# [29] = target: GRK4 (human) (UniProt P32298)
# [30] = target: MAP3K5 (human) (UniProt Q99683)
# [31] = target: BRAF (human) (UniProt P15056)
# [32] = target: IGF1R (human) (UniProt P08069)
# [33] = target: PAK7 (human) (UniProt Q9P286)
# PAK7 (human), sequence (Q9P286 whole entry, looked up): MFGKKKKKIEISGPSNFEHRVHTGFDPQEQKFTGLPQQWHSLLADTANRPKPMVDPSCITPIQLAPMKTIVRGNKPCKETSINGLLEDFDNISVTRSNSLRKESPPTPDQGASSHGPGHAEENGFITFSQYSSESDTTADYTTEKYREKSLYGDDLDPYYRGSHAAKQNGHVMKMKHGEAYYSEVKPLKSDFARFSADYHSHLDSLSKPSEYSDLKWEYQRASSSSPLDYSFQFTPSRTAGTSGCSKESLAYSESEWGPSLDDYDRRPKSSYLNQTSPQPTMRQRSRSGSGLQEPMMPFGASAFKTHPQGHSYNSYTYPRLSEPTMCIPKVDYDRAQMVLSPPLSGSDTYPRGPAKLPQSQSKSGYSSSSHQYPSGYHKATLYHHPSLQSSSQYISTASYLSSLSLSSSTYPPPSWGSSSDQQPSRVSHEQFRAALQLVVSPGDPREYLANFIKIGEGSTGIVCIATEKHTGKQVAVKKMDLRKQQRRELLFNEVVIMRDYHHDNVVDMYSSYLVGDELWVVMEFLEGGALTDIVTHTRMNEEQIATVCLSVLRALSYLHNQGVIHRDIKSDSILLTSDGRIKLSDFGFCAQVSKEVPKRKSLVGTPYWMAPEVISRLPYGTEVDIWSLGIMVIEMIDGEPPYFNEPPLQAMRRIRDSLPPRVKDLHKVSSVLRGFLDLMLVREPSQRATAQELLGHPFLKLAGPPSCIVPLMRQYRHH
# [34] = target: CDK2 CCNE1 (human) (UniProt P24941+P24864)
# FRK (human), sequence (P42685 whole entry, looked up): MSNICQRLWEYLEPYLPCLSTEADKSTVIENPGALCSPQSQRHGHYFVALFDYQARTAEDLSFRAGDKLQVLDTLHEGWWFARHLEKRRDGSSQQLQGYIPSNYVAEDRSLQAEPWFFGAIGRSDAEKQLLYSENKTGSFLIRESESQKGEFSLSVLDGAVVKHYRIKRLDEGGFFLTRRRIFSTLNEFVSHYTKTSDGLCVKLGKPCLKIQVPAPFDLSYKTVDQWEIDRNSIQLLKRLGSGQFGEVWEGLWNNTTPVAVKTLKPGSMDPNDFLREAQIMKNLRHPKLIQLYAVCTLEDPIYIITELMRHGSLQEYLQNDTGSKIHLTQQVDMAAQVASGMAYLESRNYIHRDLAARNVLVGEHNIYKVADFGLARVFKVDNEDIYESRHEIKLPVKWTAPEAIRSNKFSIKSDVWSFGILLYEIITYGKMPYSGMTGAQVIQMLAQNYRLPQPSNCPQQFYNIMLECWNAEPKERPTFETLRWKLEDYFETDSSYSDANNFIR
# DYRK2 (human), sequence (Q92630 whole entry, looked up): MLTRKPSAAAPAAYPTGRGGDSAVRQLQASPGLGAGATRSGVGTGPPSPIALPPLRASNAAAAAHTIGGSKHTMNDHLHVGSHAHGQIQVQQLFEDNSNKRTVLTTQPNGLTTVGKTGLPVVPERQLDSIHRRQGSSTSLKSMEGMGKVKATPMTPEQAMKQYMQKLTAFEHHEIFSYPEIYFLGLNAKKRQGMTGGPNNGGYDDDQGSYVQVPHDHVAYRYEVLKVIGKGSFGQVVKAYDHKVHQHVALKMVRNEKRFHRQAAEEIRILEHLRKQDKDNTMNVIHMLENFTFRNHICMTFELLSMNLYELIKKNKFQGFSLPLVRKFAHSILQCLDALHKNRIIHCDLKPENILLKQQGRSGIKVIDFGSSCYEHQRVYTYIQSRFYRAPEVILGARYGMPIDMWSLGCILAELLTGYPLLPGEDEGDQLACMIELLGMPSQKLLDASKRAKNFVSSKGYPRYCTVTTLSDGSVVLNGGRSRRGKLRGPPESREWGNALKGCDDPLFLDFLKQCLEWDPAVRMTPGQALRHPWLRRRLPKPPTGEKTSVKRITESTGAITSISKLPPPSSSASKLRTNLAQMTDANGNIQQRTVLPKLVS
SMILES,residual activity [1] [%],residual activity [2] [%],residual activity [3] [%],residual activity [4] [%],residual activity [5] [%],residual activity [6] [%],residual activity [7] [%],residual activity [8] [%],residual activity [9] [%],residual activity [10] [%],residual activity [11] [%],residual activity [12] [%],residual activity [13] [%],residual activity [14] [%],residual activity [15] [%],residual activity [16] [%],residual activity [17] [%],residual activity [18] [%],residual activity [19] [%],residual activity [20] [%],other results
CC(C)[C@H](CO)Nc1nc(Nc2cc(N)cc(Cl)c2)c2ncn(C(C)C)c2n1,90,7.03,80.2,93.2,70.3,8.35,107,99.7,76.7,70,103,83,85,88.4,58.4,48.7,107,91.9,101,81.9,residual activity [21]: 64%; residual activity [22]: 81.5%; residual activity [23]: 81.1%; residual activity [24]: 95.3%; residual activity [25]: 98%; residual activity [26]: 98.4%; residual activity [27]: 17.7%; residual activity [28]: 87.6%; residual activity [29]: 103%; residual activity [30]: 95.6%; residual activity [31]: 97.5%; residual activity [32]: 73%; residual activity [33]: 44.3%
COc1ccc(OC)c2c(=S)c3ccccc3[nH]c12,97.8,89.2,89.7,96.8,88.8,71,77.6,99.6,89.6,104,61.3,92.5,102,104,91.1,87.4,108,88.2,94,105,residual activity [34]: 77.9%; residual activity [21]: 114%; residual activity [22]: 102%; residual activity [23]: 100%; residual activity [24]: 75.2%; residual activity [25]: 93%; residual activity [26]: 87.7%; residual activity [27]: 107%; residual activity [28]: 103%; residual activity [29]: 103%; residual activity [30]: 115%; residual activity [31]: 88.5%; residual activity [32]: 97.2%; residual activity [33]: 82.9%
O=C1NC(=O)C(c2c[nH]c3ccccc23)=C1c1c[nH]c2ccccc12,97.4,88.4,94.3,97.7,88.2,16.1,91.4,97.3,41.4,64.7,28.4,98.4,99.6,103,88.5,11.5,112,101,88.6,100,residual activity [34]: 71.4%; residual activity [21]: 95.3%; residual activity [22]: 93.8%; residual activity [23]: 103%; residual activity [24]: 105%; residual activity [25]: 17.2%; residual activity [26]: 90.5%; residual activity [27]: 68.7%; residual activity [28]: 55.5%; residual activity [29]: 97.1%; residual activity [30]: 106%; residual activity [31]: 101%; residual activity [32]: 80%; residual activity [33]: 104%
Cn1sc(=O)n(Cc2ccccc2)c1=O,94.6,96.3,105,104,112,99.1,86.6,100,95.6,93.2,114,96.7,93.7,96.4,100,104,103,98.8,94,91.6,residual activity [34]: 95.1%; residual activity [21]: 103%; residual activity [22]: 102%; residual activity [23]: 92.2%; residual activity [24]: 100%; residual activity [25]: 93%; residual activity [26]: 105%; residual activity [27]: 95.3%; residual activity [28]: 94.1%; residual activity [29]: 101%; residual activity [30]: 91.5%; residual activity [31]: 98.1%; residual activity [32]: 97.1%; residual activity [33]: 81.1%
O=C1Nc2ccccc2/C1=C1\Nc2ccccc2\C1=N/O,101,45.1,89.3,79.1,73.3,2.16,96.7,101,52.2,19.9,27.3,89.5,66.8,75.1,85.9,42.6,102,56.4,110,80.1,residual activity [34]: 31.3%; residual activity [21]: 86.5%; residual activity [22]: 96.9%; residual activity [23]: 58.5%; residual activity [24]: 83.7%; residual activity [25]: 85.2%; residual activity [26]: 103%; residual activity [27]: 17.3%; residual activity [28]: 95%; residual activity [29]: 98.3%; residual activity [30]: 84.3%; residual activity [31]: 105%; residual activity [32]: 80.2%; residual activity [33]: 89.3%
O=C(Nc1cccc(Nc2cc(Nc3cccc(C(F)(F)F)c3)ncn2)c1)C1CC1,98.7,99.6,101,99.9,102,97.9,102,99.7,103,102,114,97.9,103,97.7,97.8,102,101,104,99,93.7,residual activity [34]: 96.7%; residual activity [21]: 106%; residual activity [22]: 109%; residual activity [23]: 94.9%; residual activity [24]: 108%; residual activity [25]: 104%; residual activity [26]: 104%; residual activity [27]: 97.7%; residual activity [28]: 101%; residual activity [29]: 104%; residual activity [30]: 104%; residual activity [31]: 96.8%; residual activity [32]: 105%; residual activity [33]: 97.5%
